Reference: PMC8485799, “Synthesis and Antiprotozoal Profile of 3,4,5‐Trisubstituted Isoxazoles” (ChemistryOpen, 2021)

Assays:
[1] = test system: promastigote forms of Leishmania amazonensis (WHOM/BR/75/JOSEFA strain); test: Antiproliferative assay (XTT), promastigote forms, 72 h; format: cell-based; details: for IC50: Leishmania amazonensis, promastigote form, 72 h, XTT, read-out: L. amazonensis IC50; for SIL-F, selectivity index (Fibroblast CC50/L. amazonensis IC50): fibroblast vs promastigote; for SIL-M, selectivity index (Macrophages CC50/L. amazonensis IC50): macrophages vs promastigote
Outline: (§1)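 Parasites at 1×10^6 mL^−1 with compound (DMSO stock diluted in medium): L. amazonensis promastigotes in Warren medium + 10% FBS at 25 °C for 72 h, T. cruzi epimastigotes in LIT medium + 10% FBS at 28 °C for 96 h. Viability by XTT/PMS for 4 h, absorbance at 450 nm. IC50 from % viable versus control.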

[2] = test system: epimastigote forms of Trypanosoma cruzi (Y strain); test: Antiproliferative assay (XTT), epimastigote forms, 96 h; format: cell-based; details: for IC50: Trypanosoma cruzi, epimastigote form, 96 h, XTT, read-out: T. cruzi IC50; for SIT-F, selectivity index (Fibroblast CC50/T. cruzi IC50): fibroblast vs epimastigote; for SIT-M, selectivity index (Macrophages CC50/T. cruzi IC50): macrophages vs epimastigote
Outline: as §1

[3] = Cytotoxicity assay in mammalian cells (MTT), fibroblasts, 72 h; format: cell-based; details: mouse, L929 fibroblast cells, pH 7.2; 50 % inhibition of fibroblast growth, 72 h, MTT
Outline: (§2)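 Cells pre-grown 24 h to confluence (L929 2.5×10^5, J774 A1 5×10^5 cells.mL^−1), then exposed to compound dilutions at 37 °C, 5 % CO2: L929 in DMEM/10 % FBS for 72 h, J774 A1 in RPMI‐1640/10 % FBS for 48 h. MTT (2 mg.mL^−1, 4 h), formazan read at […]; CC50 from viability versus untreated controls.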

[4] = Cytotoxicity assay in mammalian cells (MTT), macrophages, 48 h; format: cell-based; details: mouse, J774 A1 macrophages, pH 7.2; 50 % inhibition of macrophages growth, 48 h, MTT
Outline: as §2

Row | Structure (SMILES) | IC50 [1] [µM] | SIL-F, selectivity index (Fibroblast CC50/L. amazonensis IC50) [1] | SIL-M, selectivity index (Macrophages CC50/L. amazonensis IC50) [1] | IC50 [2] [µM] | SIT-F, selectivity index (Fibroblast CC50/T. cruzi IC50) [2] | SIT-M, selectivity index (Macrophages CC50/T. cruzi IC50) [2] | CC50 at 72 h [3] [µM] | CC50 at 48 h [4] [µM] | melting point [°C]
1 | O=C(N/N=C/c1ccccc1)c1noc(-c2ccccc2)c1CNc1ccccc1 [4 ba] | 76.8 ± 8.7 | 5.32 | 5.02 | 69.6 ± 3.9 | 5.87 | 5.54 | 409 ± 7.8 | 385.6 ± 3.2 | 169.9 to 172
2 | O=C(N/N=C/c1ccccc1)c1noc(-c2ccccc2)c1CNc1ccc(Cl)cc1 [4 bb] | 27.8 ± 0.7 | 11.57 | 10.98 | 27 ± 1.1 | 11.91 | 11.30 | 322 ± 9.7 | 305 ± 7.4 | 188.4 to 190.1
3 | COc1ccc(NCc2c(C(=O)N/N=C/c3ccccc3)noc2-c2ccccc2)cc1 [4 bc] | 21.5 ± 0.8 | 9.75 | 8.20 | 26.7 ± 3.9 | 7.85 | 6.61 | 210 ± 4.7 | 176 ± 6.6 | 197.6 to 199.6
4 | O=C(N/N=C/c1ccccc1)c1noc(-c2ccc(F)cc2)c1CNc1ccccc1 [4 ca] | 135 ± 11.4 | 6.04 | 5.83 | 149 ± 10.3 | 5.47 | 5.29 | 814 ± 13.5 | 784 ± 10.6 | 157.7 to 159.6
5 | O=C(N/N=C/c1ccccc1)c1noc(-c2ccc(F)cc2)c1CNc1ccc(Cl)cc1 [4 cb] | 87.3 ± 6.4 | 4.37 | 4.18 | 98.7 ± 10.1 | 3.86 | 3.69 | 381 ± 6.9 | 365 ± 8.7 | 167.9 to 170.5
6 | COc1ccc(NCc2c(C(=O)N/N=C/c3ccccc3)noc2-c2ccc(F)cc2)cc1 [4 cc] | 56.3 ± 8.5 | 5.46 | 5.32 | 78.6 ± 7.4 | 3.91 | 3.81 | 308 ± 9.8 | 300 ± 8.9 | 181.7 to 185.5
7 | O=C(N/N=C/c1ccccc1)c1noc(-c2ccc(Cl)cc2)c1CNc1ccccc1 [4 da] | 48.6 ± 2.8 | 5.46 | 4.85 | 49.7 ± 2.2 | 5.34 | 4.74 | 266 ± 5.9 | 236 ± 9.6 | 189.3 to 191.8
8 | O=C(N/N=C/c1ccccc1)c1noc(-c2ccc(Cl)cc2)c1CNc1ccc(Cl)cc1 [4 db] | 67.4 ± 3.9 | 6.00 | 5.86 | 71 ± 4.7 | 5.70 | 5.56 | 404.7 ± 4 | 395 ± 9.9 | 167.5 to 169.3
9 | COc1ccc(NCc2c(C(=O)N/N=C/c3ccccc3)noc2-c2ccc(Cl)cc2)cc1 [4 dc] | 54.3 ± 2.7 | 5.45 | 4.50 | 65.9 ± 6.1 | 4.49 | 3.71 | 296 ± 9 | 245 ± 7.9 | 176.3 to 177.1
10 | O=C(N/N=C/c1ccccn1)c1noc(-c2ccc([N+](=O)[O-])cc2)c1CNc1ccccc1 [5 aa, 3‐[(2E)‐N'‐(2‐pyridinylmethylene)hydrazinecarbonyl]‐4‐(phenyl)aminomethyl‐5‐(4‐nitrophenyl)isoxazole] | 126 ± 2.1 | 3.24 | 3.09 | 123 ± 10.9 | 3.31 | 3.16 | 407.3 ± 3.9 | 388 ± 7.9 | 223.8 to 225.5
11 | O=C(N/N=C/c1ccccn1)c1noc(-c2ccccc2)c1CNc1ccccc1 [5 ba] | 35.8 ± 4.8 | 9.20 | 8.47 | 33.6 ± 4.4 | 9.80 | 9.02 | 330 ± 5.6 | 303 ± 9.5 | 194.8 to 195.6
12 | O=C(N/N=C/c1ccccn1)c1noc(-c2ccccc2)c1CNc1ccc(Cl)cc1 [5 bb] | 27.8 ± 4.1 | 12.38 | 11.01 | 26.9 ± 0.9 | 12.57 | 11.18 | 338 ± 8.6 | 301 ± 5.9 | 209.3 to 211.7
13 | O=C(N/N=C/c1ccccn1)c1noc(-c2ccc(F)cc2)c1CNc1ccccc1 [5 ca] | 74.8 ± 2.9 | 5.38 | 5.01 | 69.5 ± 3.7 | 5.79 | 5.38 | 403 ± 8.6 | 374 ± 5.8 | 157.7 to 159.6
14 | O=C(N/N=C/c1ccccn1)c1noc(-c2ccc(F)cc2)c1CNc1ccc(Cl)cc1 [5 cb] | 22.6 ± 5 | 6.81 | 4.96 | 39.4 ± 3.1 | 3.91 | 2.84 | 154 ± 7.8 | 112 ± 6.8 | 202.4 to 203.9
15 | O=C(N/N=C/c1ccccn1)c1noc(-c2ccc(Cl)cc2)c1CNc1ccccc1 [5 da] | 69 ± 8.7 | 4.32 | 4.19 | 72.6 ± 3.8 | 4.10 | 3.98 | 298 ± 5.7 | 289 ± 9.5 | 180.5 to 182.9
16 | O=C(N/N=C/c1ccccn1)c1noc(-c2ccc(Cl)cc2)c1CNc1ccc(Cl)cc1 [5 db] | 87.9 ± 2 | 2.30 | 2.26 | 97.3 ± 3.6 | 2.08 | 2.04 | 203 ± 3.1 | 198 ± 4.6 | 175.7 to 176.4
